Laboratory results from PubChem BioAssay AID330 (DTP/NCI, 2004).
“And” between values parts separate entries of the source, which are not always exact repeats. Equal entries are not always repeated. Inconclusive results and toxic doses are left out.

System: P388 leukemia ip, CD2F1 mice, survival T/C
Assay: NCI In Vivo Anticancer Drug Screen. Data for tumor model P388 Leukemia (intraperitoneal) in CD2F1 (CDF1) mice
Conditions: endpoint: median survival time, higher = longer survival
Outline: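 Mice carrying the transplanted tumor received test compound or vehicle. Survival was recorded in each group, and the value is the treated-group measurement divided by that of the vehicle-treated control group.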

[1] = dose: 100.0 mg/kg/injection, schedule: Q01DX009 (ip), vehicle: saline with Tween-80
[2] = dose: 25.0 mg/kg/injection, schedule: Q01DX009 (ip), vehicle: saline
[3] = dose: 50.0 mg/kg/injection, schedule: Q01DX009 (ip), vehicle: saline
[4] = dose: 100.0 mg/kg/injection, schedule: Q01DX009 (ip), vehicle: saline
[5] = dose: 200.0 mg/kg/injection, schedule: Q01DX009 (ip), vehicle: saline
[6] = dose: 60.0 mg/kg/injection, schedule: Q01DX005 (ip), vehicle: saline with Tween-80
[7] = dose: 100.0 mg/kg/injection, schedule: Q04DX003 (ip), vehicle: saline with Tween-80
[8] = dose: 200.0 mg/kg/injection, schedule: Q04DX003 (ip), vehicle: saline with Tween-80
[9] = dose: 12.5 mg/kg/injection, schedule: Q01DX009 (ip), vehicle: Klucel (hydroxypropylcellulose) (HPC)
[10] = dose: 50.0 mg/kg/injection, schedule: Q01DX009 (ip), vehicle: Klucel (hydroxypropylcellulose) (HPC)
[11] = dose: 100.0 mg/kg/injection, schedule: Q01DX009 (ip), vehicle: Klucel (hydroxypropylcellulose) (HPC)

In the case of `CC1=C/C(=C(\c2ccccc2)c2cc(C)c(O)c(CNCC(=O)O)c2)C=C(CNCC(=O)O)C1=O`, the T/C (dose: 60.0 mg/kg/injection, schedule: Q01DX005 (ip), vehicle: saline) is reported as 95 % of control, the T/C (dose: 120.0 mg/kg/injection, schedule: Q01DX005 (ip), vehicle: saline) is reported as 103 % of control and the T/C (dose: 240.0 mg/kg/injection, schedule: Q01DX005 (ip), vehicle: saline) is reported as 108 % of control.

For `CCCCCCCCN(/N=C/c1c2c(O)c3c(O)c(C)c4c(c3c1O)C(=O)C(C)(O/C=C/C(OC)C(C)C(OC(C)=O)C(C)C(O)C(C)C(O)C(C)/C=C/C=C(C)C(=O)N2)O4)C1OC(COC(=O)c2ccccc2)C(OC(=O)c2ccccc2)C1OC(=O)c1ccccc1` (centres undefined), the T/C (dose: 50.0 mg/kg/injection, schedule: Q01DX009 (ip), vehicle: saline with Tween-80) was 102 % of control, the T/C [1] was 102 % of control and the T/C (dose: 200.0 mg/kg/injection, schedule: Q01DX009 (ip), vehicle: saline with Tween-80) was 107 % of control.

For `O=C1CCC(=O)N1CN(CS(=O)(=O)c1ccc(Cl)cc1)c1ccc(Cl)cc1`, the T/C (dose: 60.0 mg/kg/injection, schedule: Q01DX005 (ip), vehicle: Klucel (hydroxypropylcellulose) (HPC)) was 90 % of control, the T/C (dose: 120.0 mg/kg/injection, schedule: Q01DX005 (ip), vehicle: Klucel (hydroxypropylcellulose) (HPC)) was 88 % of control and the T/C (dose: 240.0 mg/kg/injection, schedule: Q01DX005 (ip), vehicle: Klucel (hydroxypropylcellulose) (HPC)) was 90 % of control.

For `CCOC(=O)CC(=O)c1ccc(Cl)cc1`, the T/C [2] was 100 % of control, the T/C [3] was 100 % of control and the T/C [4] was 104 % of control. The T/C [5] was 101 % of control.

For `CC1(C)C=Cc2cc3c(cc2O1)OC[C@H]1c2cc4c(cc2O[C@@H]31)OCO4`, the T/C (dose: 25.0 mg/kg/injection, schedule: Q04DX002 (ip), vehicle: Klucel (hydroxypropylcellulose) (HPC)) was 97 % of control, the T/C (dose: 50.0 mg/kg/injection, schedule: Q04DX002 (ip), vehicle: Klucel (hydroxypropylcellulose) (HPC)) was 100 % of control and the T/C (dose: 100.0 mg/kg/injection, schedule: Q04DX002 (ip), vehicle: Klucel (hydroxypropylcellulose) (HPC)) was 100 % of control. For the same compound, the T/C (dose: 400.0 mg/kg/injection, schedule: Q04DX002 (ip), vehicle: Klucel (hydroxypropylcellulose) (HPC)) was 89 % of control.

With `CN=C(N)N/N=C(\C)c1ccc2c(c1)Cc1cc(Br)ccc1-2` the T/C (dose: 6.25 mg/kg/injection, schedule: Q04DX002 (ip), vehicle: saline with Tween-80) was 102 % of control, the T/C (dose: 12.5 mg/kg/injection, schedule: Q04DX002 (ip), vehicle: saline with Tween-80) was 105 % of control and the T/C (dose: 25.0 mg/kg/injection, schedule: Q04DX002 (ip), vehicle: saline with Tween-80) was 105 % of control and 124 % of control. For the same compound, the T/C (dose: 50.0 mg/kg/injection, schedule: Q04DX002 (ip), vehicle: saline with Tween-80) was 98 % of control and 101 % of control.

With `COc1ccc(NC(=S)C#N)cc1` the T/C (dose: 15.0 mg/kg/injection, schedule: Q01DX005 (ip), vehicle: saline with Tween-80) was 99 % of control, the T/C (dose: 30.0 mg/kg/injection, schedule: Q01DX005 (ip), vehicle: saline with Tween-80) was 99 % of control and the T/C [6] was 99 % of control and 117 % of control.

For `OC(CCl)C(O)C(O)C(O)CCl` (centres undefined), the T/C [7] was 109 % of control, the T/C [8] was 100 % of control and the T/C (dose: 400.0 mg/kg/injection, schedule: Q04DX003 (ip), vehicle: saline with Tween-80) was 113 % of control.

With `Nc1nc(-c2ccccc2N=NN2CCCCC2)nc2ccccc12` the T/C [9] was 111 % of control, the T/C (dose: 25.0 mg/kg/injection, schedule: Q01DX009 (ip), vehicle: Klucel (hydroxypropylcellulose) (HPC)) was 102 % of control and the T/C [10] was 104 % of control. The T/C [11] was 110 % of control and 113 % of control.

In the case of `COc1cc2c(cc1OC)CN1CSc3cc(OC)c(OC)cc3C1C2` (centres undefined), the T/C (dose: 100.0 mg/kg/injection, schedule: Q01DX001 (ip), vehicle: saline with Tween-80) is reported as 92 % of control and the T/C (dose: 200.0 mg/kg/injection, schedule: Q01DX001 (ip), vehicle: saline with Tween-80) is reported as 92 % of control.

`Cc1cccc2c(Nc3ccc(NS(C)(=O)=O)cc3)c3ccccc3nc12` was tested, and the T/C (dose: 0.53 mg/kg/injection, schedule: Q01DX009 (ip), vehicle: saline) was 111 % of control, the T/C (dose: 0.8 mg/kg/injection, schedule: Q01DX009 (ip), vehicle: saline) was 124 % of control and the T/C (dose: 7.5 mg/kg/injection, schedule: Q01DX009 (ip), vehicle: saline with Tween-80) was 166 % of control. The T/C (dose: 33.0 mg/kg/injection, schedule: Q04DX003 (ip), vehicle: saline with Tween-80) was 168 % of control, the T/C (dose: 50.0 mg/kg/injection, schedule: Q04DX003 (ip), vehicle: saline with Tween-80) was 163 % of control and the T/C (dose: 75.0 mg/kg/injection, schedule: Q04DX003 (ip), vehicle: saline with Tween-80) was 163 % of control and 181 % of control. For the same compound, the T/C (dose: 150.0 mg/kg/injection, schedule: Q04DX003 (ip), vehicle: saline with Tween-80) was 181 % of control and the T/C (dose: 300.0 mg/kg/injection, schedule: Q04DX003 (ip), vehicle: saline with Tween-80) was 122 % of control.

With `Cc1ccc(S(=O)(=O)N/N=C/C(=O)O)cc1` the T/C (dose: 6.25 mg/kg/injection, schedule: Q01DX009 (ip), vehicle: Klucel (hydroxypropylcellulose) (HPC)) was 110 % of control and 119 % of control, the T/C (dose: 6.25 mg/kg/injection, schedule: Q01DX009 (ip), vehicle: other) was 106 % of control and the T/C (dose: 6.25 mg/kg/injection, schedule: Q01DX009 (ip), vehicle: water) was 108 % of control. The T/C [9] was 114 % of control and 117 % of control and 122 % of control, the T/C (dose: 12.5 mg/kg/injection, schedule: Q01DX009 (ip), vehicle: saline with Tween-80) was 121 % of control and the T/C [10] was 152 % of control. The T/C [11] was 104 % of control and 119 % of control and 117 % of control and the T/C [1] was 107 % of control.

For `COC(C)C(Br)C(=O)NN=C(c1ccccc1)c1ccccc1` (centres undefined), the T/C (dose: 100.0 mg/kg/injection, schedule: Q04DX003 (ip), vehicle: saline) was 95 % of control, the T/C (dose: 200.0 mg/kg/injection, schedule: Q04DX003 (ip), vehicle: saline) was 93 % of control and the T/C (dose: 400.0 mg/kg/injection, schedule: Q04DX003 (ip), vehicle: saline) was 95 % of control.

With `c1cc[n+](Cc2ccc3ccccc3c2)c(C2OCCO2)c1` the T/C (dose: 5.0 mg/kg/injection, schedule: Q01DX009 (ip), vehicle: saline) was 100 % of control, the T/C (dose: 10.0 mg/kg/injection, schedule: Q01DX009 (ip), vehicle: saline) was 100 % of control and the T/C (dose: 20.0 mg/kg/injection, schedule: Q01DX009 (ip), vehicle: saline) was 104 % of control.

For `CC(C)C1CC2CCC3C(C)(C(=O)O)CCCC3(C)C2CC1CO` (centres undefined), the T/C [7] was 100 % of control and the T/C [8] was 91 % of control.

With `N#Cc1ccc(N=NN2CCOC2)cc1` the T/C [6] was 86 % of control, the T/C (dose: 120.0 mg/kg/injection, schedule: Q01DX005 (ip), vehicle: saline with Tween-80) was 100 % of control and the T/C (dose: 240.0 mg/kg/injection, schedule: Q01DX005 (ip), vehicle: saline with Tween-80) was 93 % of control.

For `Cc1ccc(S(=O)(=O)OC2CN(S(=O)(=O)c3ccc(C)cc3)C2)cc1`, the T/C (dose: 50.0 mg/kg/injection, schedule: Q01DX005 (ip), vehicle: Klucel (hydroxypropylcellulose) (HPC)) was 100 % of control, the T/C (dose: 100.0 mg/kg/injection, schedule: Q01DX005 (ip), vehicle: Klucel (hydroxypropylcellulose) (HPC)) was 91 % of control and the T/C (dose: 200.0 mg/kg/injection, schedule: Q01DX005 (ip), vehicle: Klucel (hydroxypropylcellulose) (HPC)) was 90 % of control.

For `CCOC(=O)Oc1ccc[nH]c1=O`, the T/C [2] was 100 % of control and 96 % of control, the T/C (dose: 25.0 mg/kg/injection, schedule: Q01DX009 (sc), vehicle: saline with Tween-80) was 100 % of control and 109 % of control and the T/C [3] was 100 % of control. The T/C (dose: 50.0 mg/kg/injection, schedule: Q01DX009 (sc), vehicle: saline with Tween-80) was 108 % of control and 109 % of control, the T/C [4] was 108 % of control and 109 % of control and the T/C (dose: 100.0 mg/kg/injection, schedule: Q01DX009 (sc), vehicle: saline with Tween-80) was 106 % of control and 115 % of control. For the same compound, the T/C [5] was 111 % of control and 113 % of control, the T/C (dose: 200.0 mg/kg/injection, schedule: Q01DX009 (sc), vehicle: saline with Tween-80) was 104 % of control and 116 % of control and the T/C (dose: 400.0 mg/kg/injection, schedule: Q01DX009 (ip), vehicle: saline) was 117 % of control and 124 % of control. The T/C (dose: 400.0 mg/kg/injection, schedule: Q01DX009 (sc), vehicle: saline with Tween-80) was 101 % of control and 108 % of control and the T/C (dose: 600.0 mg/kg/injection, schedule: Q01DX009 (sc), vehicle: saline with Tween-80) was 107 % of control and 112 % of control.

In the case of `COc1cc([C@@H]2Oc3c(OC)cc4ccc(=O)oc4c3O[C@H]2CO)ccc1O`, the T/C (dose: 200.0 mg/kg/injection, schedule: Q01DX005 (ip), vehicle: saline + alcohol) is reported as 87 % of control and the T/C (dose: 300.0 mg/kg/injection, schedule: Q01DX005 (ip), vehicle: saline + alcohol) is reported as 94 % of control.

In the case of `CCn1c2ccccc2c2cc(N=Nc3ccc(O)c4ccccc34)ccc21`, the T/C [10] is reported as 105 % of control, the T/C [11] is reported as 101 % of control and 106 % of control and the T/C (dose: 200.0 mg/kg/injection, schedule: Q01DX009 (ip), vehicle: Klucel (hydroxypropylcellulose) (HPC)) is reported as 100 % of control and 102 % of control.
